Source: patent US12121540B2, “CBL inhibitors and compositions for use in adoptive cell therapy” (Nurix Therapeutics, Inc., priority 2019, dated 2024)

Columns and labels:
[1] = test system: human T cells from peripheral blood mononuclear cells; test: Expansion of CMV pp65 reactive T cells from peripheral blood mononuclear cells; assay type: cell-based; details: for Expansion of T cells from PBMC, total cell number relative to IL-2 alone: day 11
Text: (§1) At day eleven, cells were pooled and counted, and immunophenotyped at day 11 by flow cytometry by measuring expression of lineage (CD4, CD8) and differentiation (including CD45RA, CD45RO, CD95, CCR7, CD62L, TCF1, PD-1, TIM3, LAG3) markers.

[2] = test system: human T cells from peripheral blood mononuclear cells; test: Flow cytometry immunophenotyping of T cells expanded from donor PBMC; assay type: cell-based; details: for CD4 TCM, percentage of total cell number / CD4 TEM, percentage of total cell number / CD4 TSCM, percentage of total cell number / CD8 TCM, percentage of total cell number / CD8 TEM, percentage of total cell number / CD8 TSCM, percentage of total cell number: donor PBMC, day 11
Text: as §1
T lymphocytes were defined based on lineage and differentiation marker expression according to the developmental model (Restifo, Blood, 124:476-477, 2014), as shown in Table 4.

[3] = test system: CD4/8+ T cells; test: Intracellular IFN-γ after PMA/ionomycin stimulation of expanded T cells; assay type: cell-based, human; details: IL-2 and Cbl inhibitor expanded T cells; PMA/ionomycin 6 h
Method: T cell activity was determined by analysis of cytokine secretion. To investigate whether these expanded T cells are capable of responding to extracellular stimulation, T cells were stimulated with 25 ng/mL phorbol myristate acetate (PMA) and 0.5 μM ionomycin. After 90 min of stimulation, monensin, 1:50, (GolgiStop, BD Biosciences) was added. After 6 h, cells were stained for surface expression of CD4+, CD8+, CD45RA+, CD95+, CCR7+, CD62L+, and subsequently, fixed, permeabilized and stained for intracellular cytokine, IFN-γ.

[4] = test system: OT-1 cells; test: FACS of transferred OT-1 cells in blood and tumor of E.G7-OVA mice; assay type: in vivo, mouse
Method: Dead cells were removed (Miltenyi Biotec Cat #130-090-101) prior to transfer in vivo to monitor their trafficking and function in an EG.7 lymphoma model, which expresses the OVA antigen. Approximately five million cells per mouse were transferred to mice having an average tumor burden of about 70 mm^3. Following in vivo transfer of the OT-1 cells, antitumor response was monitored over time and the quality and quantity of immune response were assessed at various time points.
The expanded OT-1 cells were characterized by FACS analysis and transferred into E.G7-OVA mice, which bear ovalbumin (OVA) expressing tumors. Following in vivo transfer of expanded OT-1 cells, antitumor response was monitored over time and the quality and quantity of immune response was assessed at various time points. Analysis included FACS analysis on blood, tumor, and spleen samples. Analysis also included re-stimulation of splenocytes with OVA Class I peptide to evaluate the multifunctionality of the antigen-specific effector T cells.
On Day 0, E.G7-OVA cells were implanted into each mouse. On Day 5, approximately 5×10^6 in vitro expanded OT-1 cells were injected into the tail of each mouse. On Day 9, blood was analyzed by FACS. On Day 14, blood, tumor and spleen samples were analyzed by FACS. On Day 27, blood was analyzed by FACS. Tumor volume was measured approximately every five days through about 50 days post implant.
OT-1 cells were expanded according to the previous examples and administered to E.G7-OVA mice, which bear ovalbumin (OVA) expressing tumors. The cells were evaluated for their in vivo properties.
Expanded OT-1 cells were assessed in blood 4 days and 22 days after transfer.
Expanded OT-1 cells were assessed in tumors 4 days after transfer.

[5] = test system: OT-1 cells; test: Tumor re-challenge of long term survivors 149 days after OT-1 transfer; assay type: in vivo, mouse
Text: To determine whether OT-1 cells are capable of long-term tumor protection, the long term survivors of the above experiment (FIG. 12) were re-challenged with a lethal dose of E.G7-OVA tumor cells 149 days after the initial adoptive transfer of the in vitro expanded OT-1 cells. Re-challenge induced OT-1 cell expansion at the site engrafted with E.G7-OVA tumor cells expressing ovalbumin antigen, thereby effectively controlling tumor growth (FIG. 21).

[6] = test system: CD8+ and CD4+ TIL; test: CD107a and granzyme B in TIL after anti-CD3/CD28 stimulation; assay type: cell-based, human
Method: In the context of cytotoxicity, granzyme B (Grb), a protease secreted to mediate apoptosis, was assessed.

[7] = test system: TIL; test: Cytokine and chemokine secretion of expanded TIL (Luminex); assay type: cell-based, human
Method: Also assessed were cytokines and chemokines secreted during the 14 day expansion in GREX.
Supernatants were assessed by Luminex.

[8] = IL-2 + compound 103, upon stimulation
[9] = expanded with IL2 + compound 103, anti-CD3/CD28 6 hours

C[C@@H]1CN(Cc2cc3c(c(C(F)(F)F)c2)CN(c2cccc(C4(Cc5nncn5C)COC4)c2)C3=O)CCC1(F)F [compound 103]
Expansion of T cells ([1]; Cbl inhibitor in the absence of IL-2): considerable expansion of T cells
Expansion of T cells from PBMC, total cell number relative to IL-2 alone ([1]; Donor 1, 0.1 μM Cbl-i): 12%
Expansion of T cells from PBMC, total cell number relative to IL-2 alone ([1]; Donor 1, 1.0 μM Cbl-i): 12%
Expansion of T cells from PBMC, total cell number relative to IL-2 alone ([1]; Donor 1, 10 μM Cbl-i): 44%
Expansion of T cells from PBMC, total cell number relative to IL-2 alone ([1]; Donor 1, IL-2 + 0.1 μM Cbl-i): 614%
Expansion of T cells from PBMC, total cell number relative to IL-2 alone ([1]; Donor 1, IL-2 + 1.0 μM Cbl-i): 1007%
Expansion of T cells from PBMC, total cell number relative to IL-2 alone ([1]; Donor 1, IL-2 + 10 μM Cbl-i): 898%
Expansion of T cells from PBMC, total cell number relative to IL-2 alone ([1]; Donor 2, 0.1 μM Cbl-i): 70%
Expansion of T cells from PBMC, total cell number relative to IL-2 alone ([1]; Donor 2, 1.0 μM Cbl-i): 95%
Expansion of T cells from PBMC, total cell number relative to IL-2 alone ([1]; Donor 2, 10 μM Cbl-i): 45%
Expansion of T cells from PBMC, total cell number relative to IL-2 alone ([1]; Donor 2, IL-2 + 0.1 μM Cbl-i): 2059%
Expansion of T cells from PBMC, total cell number relative to IL-2 alone ([1]; Donor 2, IL-2 + 1.0 μM Cbl-i): 170%
Expansion of T cells from PBMC, total cell number relative to IL-2 alone ([1]; Donor 2, IL-2 + 10 μM Cbl-i): 2161%
Expansion of T cells from PBMC, total cell number relative to IL-2 alone ([1]; Donor 3, 0.1 μM Cbl-i): 175%
Expansion of T cells from PBMC, total cell number relative to IL-2 alone ([1]; Donor 3, 1.0 μM Cbl-i): 75%
Expansion of T cells from PBMC, total cell number relative to IL-2 alone ([1]; Donor 3, 10 μM Cbl-i): 38%
Expansion of T cells from PBMC, total cell number relative to IL-2 alone ([1]; Donor 3, IL-2 + 0.1 μM Cbl-i): 3622%
Expansion of T cells from PBMC, total cell number relative to IL-2 alone ([1]; Donor 3, IL-2 + 1.0 μM Cbl-i): 2145%
Expansion of T cells from PBMC, total cell number relative to IL-2 alone ([1]; Donor 3, IL-2 + 10 μM Cbl-i): 1151%
Percentage of CD8+ cells vs IL-2 alone ([2]; 1 μM Cbl inhibitor alone): higher percentages of CD8+ cells
Percentage of CD8+ cells in culture ([2]; IL-2 in combination with 0.1 or 0.5 μM of Cbl inhibitor): highest percentage of CD8+ cells
CD4 TCM, percentage of total cell number ([2]; 0.1 μM Cbl-i): 53.1%
CD4 TEM, percentage of total cell number ([2]; 0.1 μM Cbl-i): 23.9%
CD4 TSCM, percentage of total cell number ([2]; 0.1 μM Cbl-i): 12%
CD8 TCM, percentage of total cell number ([2]; 0.1 μM Cbl-i): 50.7%
CD8 TEM, percentage of total cell number ([2]; 0.1 μM Cbl-i): 14.2%
CD8 TSCM, percentage of total cell number ([2]; 0.1 μM Cbl-i): 17.1%
CD4 TCM, percentage of total cell number ([2]; 1.0 μM Cbl-i): 55.3%
CD4 TEM, percentage of total cell number ([2]; 1.0 μM Cbl-i): 19.3%
CD4 TSCM, percentage of total cell number ([2]; 1.0 μM Cbl-i): 7.27%
CD8 TCM, percentage of total cell number ([2]; 1.0 μM Cbl-i): 61.1%
CD8 TEM, percentage of total cell number ([2]; 1.0 μM Cbl-i): 12.9%
CD8 TSCM, percentage of total cell number ([2]; 1.0 μM Cbl-i): 7.29%
CD4 TCM, percentage of total cell number ([2]; 10 μM Cbl-i): 47.3%
CD4 TEM, percentage of total cell number ([2]; 10 μM Cbl-i): 23.3%
CD4 TSCM, percentage of total cell number ([2]; 10 μM Cbl-i): 1.37%
CD8 TCM, percentage of total cell number ([2]; 10 μM Cbl-i): 34.2%
CD8 TEM, percentage of total cell number ([2]; 10 μM Cbl-i): 9.23%
CD8 TSCM, percentage of total cell number ([2]; 10 μM Cbl-i): 10.8%
CD4 TCM, percentage of total cell number ([2]; IL-2 + 0.1 μM Cbl-i): 13.9%
CD4 TEM, percentage of total cell number ([2]; IL-2 + 0.1 μM Cbl-i): 29.7%
CD4 TSCM, percentage of total cell number ([2]; IL-2 + 0.1 μM Cbl-i): 8.53%
CD8 TCM, percentage of total cell number ([2]; IL-2 + 0.1 μM Cbl-i): 47.8%
CD8 TEM, percentage of total cell number ([2]; IL-2 + 0.1 μM Cbl-i): 18.3%
CD8 TSCM, percentage of total cell number ([2]; IL-2 + 0.1 μM Cbl-i): 4.2%
CD4 TCM, percentage of total cell number ([2]; IL-2 + 1.0 μM Cbl-i): 16.8%
CD4 TEM, percentage of total cell number ([2]; IL-2 + 1.0 μM Cbl-i): 28.4%
CD4 TSCM, percentage of total cell number ([2]; IL-2 + 1.0 μM Cbl-i): 1.98%
CD8 TCM, percentage of total cell number ([2]; IL-2 + 1.0 μM Cbl-i): 37.8%
CD8 TEM, percentage of total cell number ([2]; IL-2 + 1.0 μM Cbl-i): 41.4%
CD8 TSCM, percentage of total cell number ([2]; IL-2 + 1.0 μM Cbl-i): 0.23%
CD4 TCM, percentage of total cell number ([2]; IL-2 + 10 μM Cbl-i): 24.3%
CD4 TEM, percentage of total cell number ([2]; IL-2 + 10 μM Cbl-i): 25.8%
CD4 TSCM, percentage of total cell number ([2]; IL-2 + 10 μM Cbl-i): 2.69%
CD8 TCM, percentage of total cell number ([2]; IL-2 + 10 μM Cbl-i): 49%
CD8 TEM, percentage of total cell number ([2]; IL-2 + 10 μM Cbl-i): 10.6%
CD8 TSCM, percentage of total cell number ([2]; IL-2 + 10 μM Cbl-i): 9.36%
Selective expansion of CD8+ T lymphocytes ([2]; donor PBMCs, FIGS. 2A and 2B): selectively expand CD8+ T lymphocytes
CD4/8+ T cells capable of producing IFN-γ [3]: greater than 85%
Frequency in total CD45+ cells and persistence in blood vs IL-2 alone or anti-CD3 alone ([4]; Cbl inhibitor expanded, 4 and 22 days after transfer): higher frequency in total CD45+ cells and persisted longer
Tumor infiltration (frequency in total CD45+ cells in tumor) vs IL-2 alone or anti-CD3 alone ([4]; Cbl inhibitor expanded, 4 days after transfer): increased ability to infiltrate the tumor
OT-1 cells expressing stem markers TCF1+, PD-1+, TIM-3− ([4]; OT-1 cells expanded with Cbl inhibitor): greater percentage of cells that expressed stem markers
Frequency in total CD45+ cells and persistence in blood ([4]; expanded with Cbl inhibitor and IL-2, 4 and 22 days after transfer): even higher frequency in total CD45+ cells and higher persistence
Tumor infiltration (frequency in total CD45+ cells in tumor) ([4]; expanded with Cbl inhibitor and IL-2, 4 days after transfer): highest frequency in total CD45+ cells
Expression of exhaustion markers PD1, TIM3, LAG3 in tumor vs IL-2 alone ([4]; expanded with Cbl inhibitor or Cbl inhibitor plus IL-2): lower level of expression of exhaustion markers
Number of OT-1 cells in blood (in vivo persistence) ([5]; 149 days after transfer, expanded with Cbl inhibitor or Cbl inhibitor plus IL-2): present at a higher number in the blood
Recall response after tumor re-challenge vs IL-2 alone ([5]; OT-1 cells per ml of blood at day 5, Cbl inhibitor or Cbl inhibitor plus IL-2): significantly more rapid recall response
CD107A+GRB+ cells [6, 8]: significant increase
Granzyme B (Grb) produced in TIL vs IL-2 alone [6, 8]: significant increase of Grb
CD4+ TIL capable of producing CD107a [6, 9]: greater than 60%
CD8+ TIL capable of producing CD107a [6, 9]: greater than 60%
GMCSF, MIP1α, MIP1β and IP10 secreted during 14 day expansion in GREX ([7]; IL-2 + compound 103): trending increases
IFN-γ secreted during 14 day expansion in GREX ([7]; IL-2 + compound 103): significant increase of IFN-γ
Secretion of IL-2, IL-5, IL-7, IL-21, IL-23, TNF-α, and IFN-γ upon stimulation ([7]; high dose IL-2 + 1 μM compound 103, 24 hours): significant secretion
Secretion of MIP1α and MIP1β upon stimulation ([7]; high dose IL-2 + 1 μM compound 103, anti-CD3/CD28 24 hours): significant increases in secretion
